Results taken from article PMC11053447, “Human ABC and SLC Transporters: The Culprit Responsible for Unspecific PSMA-617 Uptake?” (Pharmaceuticals, 2024).
Like-named read-outs stand apart in the source and are kept apart here.

How the values were obtained:
[1] = molecular target: MRP1 (Homo sapiens, UniProt P33527); settings: for Relative inhibition / ATP dependent transport / Relative ATP dependent transport: E217βG probe; for ATP dependent transport / Relative ATP dependent transport: mean (n=3) ± SD
Description: The incubations were carried out in the presence of 4 mM ATP or AMP to distinguish between transporter-mediated uptake and passive diffusion into the vesicles. […] Afterwards, the reaction mixtures were pre-incubated for 15 min at 37 °C for MRP1 or at 32 °C for BCRP, MDR1 and MRP4, respectively. The transporter assay was initiated through the addition of 25 μL of pre-warmed 12 mM MgATP (or 12 mM AMP in assay buffer as a background control). The reactions were quenched through the addition of 200 μL of ice-cold washing buffer and immediate filtration via glass fiber filters mounted onto a 96-well plate (filter plate). The filters were washed (5 × 200 μL of ice-cold washing buffer) and dried, and the amount of probe substrate inside the filtered vesicles was determined using LSC. The experiments were conducted in triplicate.
Calculation of ATP-dependent transport and inhibition for vesicular transport inhibition
For all wells the amount of the translocated probe substrate was determined in counts per minute (cpm).
ATP-dependent transport (pmol/mg protein/min) is calculated for each concentration using the following
𝐴𝑐𝑐𝐴𝑇𝑃 ∙ 𝑉 ∙ 𝐶𝐶 𝐴𝑐𝑐𝐴𝑀𝑃 ∙𝑉 ∙𝐶𝐶
𝐴𝑇𝑃 − 𝑑𝑒𝑝𝑒𝑛𝑑𝑒𝑛𝑡 𝑎𝑐𝑐𝑢𝑚𝑢𝑙𝑎𝑡𝑖𝑜𝑛 = ( 𝑇𝐶𝑃𝑀 𝑠𝑢𝑏) − ( 𝑇𝐶𝑃𝑀 𝑠𝑢𝑏)
• AccATP: probe substrate accumulation with ATP (cpm)
• AccAMP: probe substrate accumulation with AMP (cpm)
• Tcpm: cpm in dosing solution V: volume per well (µL)
• CCsub: probe substrate concentration (µM)
• Prot: total protein per well (mg)
• t: incubation time (min)
Relative ATP-dependent transport (%) values were calculated using the following equation:
𝑅𝑒𝑙𝑎𝑡𝑖𝑣𝑒 𝐴𝑇𝑃 − 𝑑𝑒𝑝𝑒𝑛𝑑𝑒𝑛𝑡 𝑡𝑟𝑎𝑛𝑠𝑝𝑜𝑟𝑡 (%) = 𝐴 − 𝐵 ∙ 100
• A: amount of translocated substrate in the presence of test substance (TS) and ATP
• B: amount of translocated substrate in the presence of test substance (TS) and AMP
• C: amount of translocated substrate in the presence of solvent and ATP
• D: amount of translocated substrate in the presence of solvent and AMP
Relative inhibition (%) is calculated by setting probe substrate transport in the absence of test substance as
𝑅𝑒𝑙𝑎𝑡𝑖𝑣𝑒 𝑖𝑛ℎ𝑖𝑏𝑖𝑡𝑖𝑜𝑛 (%) = 𝐴𝑐𝑐𝑆𝑝𝑒𝑐𝑖𝑓𝑖𝑐,𝑥 ∙100
• Accspecific,x: transporter specific accumulation for a given sample (pmol/mg/min)
• Accspecific,vehicle: transporter specific accumulation for a solvent control (pmol/mg/min)

[2] = molecular target: T1, human OAT1 (Homo sapiens, UniProt Q4U2R8); experiment: SLC transporter substrate assay, HEK293-OAT1-LV vs control HEK293-Mock-B-LV cells; settings: 20 min
T1 sequence (Q4U2R8 1-563): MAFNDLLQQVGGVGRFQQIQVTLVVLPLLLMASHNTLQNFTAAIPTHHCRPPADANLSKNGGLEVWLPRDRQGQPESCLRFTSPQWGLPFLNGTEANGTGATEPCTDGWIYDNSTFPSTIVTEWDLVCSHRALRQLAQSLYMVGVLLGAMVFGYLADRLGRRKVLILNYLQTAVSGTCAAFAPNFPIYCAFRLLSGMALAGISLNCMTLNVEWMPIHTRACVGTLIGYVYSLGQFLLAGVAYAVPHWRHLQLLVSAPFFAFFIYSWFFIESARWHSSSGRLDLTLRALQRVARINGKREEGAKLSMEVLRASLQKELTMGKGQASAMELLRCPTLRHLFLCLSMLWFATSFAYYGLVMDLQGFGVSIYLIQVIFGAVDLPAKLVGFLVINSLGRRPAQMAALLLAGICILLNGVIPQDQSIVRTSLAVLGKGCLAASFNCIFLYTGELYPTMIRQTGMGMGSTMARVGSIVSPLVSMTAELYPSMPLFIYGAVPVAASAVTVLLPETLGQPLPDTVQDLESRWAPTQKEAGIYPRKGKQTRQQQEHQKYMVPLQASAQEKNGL

[3] = molecular target: T2, human OAT2v1 (Homo sapiens, UniProt Q9Y694); experiment: SLC transporter substrate assay, HEK293-OAT2v1-LV vs control HEK293-Mock-LV cells; assay type: in vitro ADME; settings: 20 min
T2 construct: host or cells: HEK293-OAT2v1-LV
T2 sequence (Q9Y694 1-546 isoform Q9Y694-2): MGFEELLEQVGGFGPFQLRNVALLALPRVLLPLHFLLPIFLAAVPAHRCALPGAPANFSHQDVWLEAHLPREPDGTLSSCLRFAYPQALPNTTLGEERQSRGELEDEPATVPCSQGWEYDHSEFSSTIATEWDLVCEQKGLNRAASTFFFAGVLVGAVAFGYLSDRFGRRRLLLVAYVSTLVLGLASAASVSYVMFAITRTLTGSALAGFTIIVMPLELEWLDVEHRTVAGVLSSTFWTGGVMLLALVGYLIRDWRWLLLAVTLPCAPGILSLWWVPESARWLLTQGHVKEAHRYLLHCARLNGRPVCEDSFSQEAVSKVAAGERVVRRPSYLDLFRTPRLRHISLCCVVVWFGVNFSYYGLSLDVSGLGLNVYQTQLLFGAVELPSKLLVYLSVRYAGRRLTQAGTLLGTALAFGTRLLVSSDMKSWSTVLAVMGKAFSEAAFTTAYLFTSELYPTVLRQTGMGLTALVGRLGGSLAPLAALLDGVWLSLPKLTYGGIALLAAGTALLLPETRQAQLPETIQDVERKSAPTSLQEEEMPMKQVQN
Description: SI4. Results of transporter substrate assays (SLC)
Human Incubation Positive control substrate/ Control Special Incubation Assay […]
(Cell line) at 37°C [min] [h]
OAT2v1 cGMP (1.5) / Mock-B- Poly-D-lysine
Fold accumulation = UPTTRP
PSMA-617 in SLC transporters.
NA: not analyzed. Test substances were considered as substrates in case of fold accumulation values > 2 combined with inhibition values higher than 50%.
4.4 Organic anion transporter OAT2v1 […]
expressed as mean (n=3) ± SD. Concentrations are nominal.
Table S13: ([α,β-3H]Nal)Lu-PSMA-617-accumulation in OAT2v1 transporter expressing (HEK293-OAT2v1-LV) and […]
Conditions Accumulation (pmol/mg protein)
Compound Nominal In OAT2v1 Fold concentration Minutes transporter In control Active accumulation
[µM] expressing cells transport
Positive control (accumulation in cpm)

[4] = 0.03 µM nominal + Probenecid 300 µM
[5] = 0.30 µM nominal + Probenecid 300 µM
[6] = 0.03 µM nominal + Indomethacin 300 µM
[7] = 0.30 µM nominal + Indomethacin 300 µM

MRP1, sequence (P33527 whole entry): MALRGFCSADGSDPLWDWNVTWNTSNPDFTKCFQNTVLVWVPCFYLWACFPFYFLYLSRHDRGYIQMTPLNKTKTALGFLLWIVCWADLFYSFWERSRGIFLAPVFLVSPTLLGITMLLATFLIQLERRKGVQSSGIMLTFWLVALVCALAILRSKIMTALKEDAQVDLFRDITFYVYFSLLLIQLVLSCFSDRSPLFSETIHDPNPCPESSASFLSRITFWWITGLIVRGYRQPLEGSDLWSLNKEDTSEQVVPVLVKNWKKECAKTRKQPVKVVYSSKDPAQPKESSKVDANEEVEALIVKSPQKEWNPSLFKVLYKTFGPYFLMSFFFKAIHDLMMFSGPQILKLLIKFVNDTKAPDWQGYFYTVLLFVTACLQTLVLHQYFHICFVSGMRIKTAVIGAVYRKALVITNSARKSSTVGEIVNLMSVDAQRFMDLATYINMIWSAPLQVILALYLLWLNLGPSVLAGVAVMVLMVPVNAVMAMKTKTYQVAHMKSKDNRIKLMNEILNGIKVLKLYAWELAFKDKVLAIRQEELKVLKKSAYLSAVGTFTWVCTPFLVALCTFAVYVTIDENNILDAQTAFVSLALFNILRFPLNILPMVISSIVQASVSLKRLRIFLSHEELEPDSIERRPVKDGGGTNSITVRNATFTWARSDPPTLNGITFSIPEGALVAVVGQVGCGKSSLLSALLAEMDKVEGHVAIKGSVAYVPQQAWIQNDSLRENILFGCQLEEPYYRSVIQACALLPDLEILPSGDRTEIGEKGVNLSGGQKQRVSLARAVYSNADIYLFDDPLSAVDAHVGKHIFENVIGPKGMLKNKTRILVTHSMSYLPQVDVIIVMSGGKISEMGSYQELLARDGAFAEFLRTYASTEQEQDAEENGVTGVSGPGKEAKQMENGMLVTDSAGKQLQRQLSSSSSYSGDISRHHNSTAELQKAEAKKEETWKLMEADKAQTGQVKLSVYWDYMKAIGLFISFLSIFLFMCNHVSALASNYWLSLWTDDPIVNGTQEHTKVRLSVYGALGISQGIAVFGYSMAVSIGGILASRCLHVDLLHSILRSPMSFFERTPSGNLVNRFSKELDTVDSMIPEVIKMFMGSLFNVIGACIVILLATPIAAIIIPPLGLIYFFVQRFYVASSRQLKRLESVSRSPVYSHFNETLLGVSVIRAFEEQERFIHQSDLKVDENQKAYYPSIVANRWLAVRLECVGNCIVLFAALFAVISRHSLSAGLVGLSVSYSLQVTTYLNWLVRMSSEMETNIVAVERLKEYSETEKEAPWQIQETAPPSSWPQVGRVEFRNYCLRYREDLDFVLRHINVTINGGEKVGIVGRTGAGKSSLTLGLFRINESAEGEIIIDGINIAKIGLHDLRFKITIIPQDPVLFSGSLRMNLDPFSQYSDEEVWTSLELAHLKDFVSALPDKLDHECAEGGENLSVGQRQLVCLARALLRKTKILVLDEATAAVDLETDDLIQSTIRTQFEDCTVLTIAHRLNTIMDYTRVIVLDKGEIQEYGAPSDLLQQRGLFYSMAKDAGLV

Compound: [3H]C(c1ccc2ccccc2c1)C([3H])(NC(=O)C1CCC(CNC(=O)CN2CCN(CC(=O)[O-])CCN(CC(=O)[O-])CCN(CC(=O)[O-])CC2)CC1)C(=O)NCCCCC(NC(=O)NC(CCC(=O)O)C(=O)O)C(=O)O.[Lu+3] (stereo not drawn) [([α,β-^3H]Nal)Lu-PSMA-617]
- Inhibitor assessment (MRP1) ([1]; 0.30 and 3.00 µM, inhibition >20% defined as significant): no inhibitor
- Relative inhibition ([1]; test substance 0.30 µM nominal): 9%
- ATP dependent transport ([1]; test substance 0.30 µM nominal): 734.00 ± 31.29 pmol/mg/min
- Relative ATP dependent transport ([1]; test substance 0.30 µM nominal): 91.45 ± 7.39 % of control
- Relative inhibition ([1]; test substance 3.00 µM nominal): 9%
- ATP dependent transport ([1]; test substance 3.00 µM nominal): 730.00 ± 37.02 pmol/mg/min
- Relative ATP dependent transport ([1]; test substance 3.00 µM nominal): 90.95 ± 7.76 % of control
- Accumulation in OAT1 transporter expressing cells [2, 4]: 0.04 ± 0.00 pmol/mg protein
- Accumulation in control cells [2, 4]: 0.03 ± 0.00 pmol/mg protein
- Accumulation, active transport [2, 4]: 0.00 ± 0.00 pmol/mg protein
- Fold accumulation [2, 4]: 1.10
- Accumulation in OAT1 transporter expressing cells ([2]; 0.03 µM nominal, no inhibitor): 0.06 ± 0.01 pmol/mg protein
- Accumulation in control cells ([2]; 0.03 µM nominal, no inhibitor): 0.05 ± 0.01 pmol/mg protein
- Accumulation, active transport ([2]; 0.03 µM nominal, no inhibitor): 0.01 ± 0.01 pmol/mg protein
- Fold accumulation ([2]; 0.03 µM nominal, no inhibitor): 1.17
- Accumulation in OAT1 transporter expressing cells [2, 5]: 0.62 ± 0.13 pmol/mg protein
- Accumulation in control cells [2, 5]: 0.44 ± 0.10 pmol/mg protein
- Accumulation, active transport [2, 5]: 0.18 ± 0.16 pmol/mg protein
- Fold accumulation [2, 5]: 1.42
- Accumulation in OAT1 transporter expressing cells ([2]; 0.30 µM nominal, no inhibitor): 0.36 ± 0.02 pmol/mg protein
- Accumulation in control cells ([2]; 0.30 µM nominal, no inhibitor): 0.34 ± 0.06 pmol/mg protein
- Accumulation, active transport ([2]; 0.30 µM nominal, no inhibitor): 0.01 ± 0.06 pmol/mg protein
- Fold accumulation ([2]; 0.30 µM nominal, no inhibitor): 1.04
- Max. transporter-specific fold accumulation, without inhibitor ([2]; 0.03 µM): 1.17
- Uptake via transporter (OAT1) ([2]; absence and presence of probenecid): not taken up
- Max. transporter-specific fold accumulation, with inhibitor ([2]; Probenecid, 0.03 µM): 1.10
- Accumulation in OAT2v1 transporter expressing cells [3, 6]: 0.06 ± 0.01 pmol/mg protein
- Accumulation in control cells [3, 6]: 0.04 ± 0.00 pmol/mg protein
- Accumulation, active transport [3, 6]: 0.01 ± 0.01 pmol/mg protein
- Fold accumulation [3, 6]: 1.24
- Accumulation in OAT2v1 transporter expressing cells ([3]; 0.03 µM nominal, no inhibitor): 0.07 ± 0.01 pmol/mg protein
- Accumulation in control cells ([3]; 0.03 µM nominal, no inhibitor): 0.04 ± 0.00 pmol/mg protein
- Accumulation, active transport ([3]; 0.03 µM nominal, no inhibitor): 0.03 ± 0.01 pmol/mg protein
- Fold accumulation ([3]; 0.03 µM nominal, no inhibitor): 1.77
- Accumulation in OAT2v1 transporter expressing cells [3, 7]: 0.66 ± 0.10 pmol/mg protein
- Accumulation in control cells [3, 7]: 0.43 ± 0.03 pmol/mg protein
- Accumulation, active transport [3, 7]: 0.24 ± 0.10 pmol/mg protein
- Fold accumulation [3, 7]: 1.55
- Accumulation in OAT2v1 transporter expressing cells ([3]; 0.30 µM nominal, no inhibitor): 0.66 ± 0.04 pmol/mg protein
- Accumulation in control cells ([3]; 0.30 µM nominal, no inhibitor): 0.36 ± 0.03 pmol/mg protein
- Accumulation, active transport ([3]; 0.30 µM nominal, no inhibitor): 0.30 ± 0.05 pmol/mg protein
- Fold accumulation ([3]; 0.30 µM nominal, no inhibitor): 1.83
- Max. transporter-specific fold accumulation, without inhibitor ([3]; 0.3 µM): 1.83
- Uptake via transporter (OAT2v1) ([3]; absence and presence of indomethacin): not taken up
- Max. transporter-specific fold accumulation, with inhibitor ([3]; Indomethacin, 0.3 µM): 1.55
